{"source": "patent US20070128294A1", "about": "“Treatment and prevention of liver adverse conditions using gallium” (priority 2005, published 2007)", "key": {"[1]": {"tested_on": "adjuvant arthritic rats (adjuvant-induced hepatomegaly)", "test": "Adjuvant-induced acute arthritis model: hepatomegaly, liver weight and histopathology", "assay_type": "in vivo", "source_text": "A preclinical animal model was used to test the efficacy of oral gallium maltolate in treating hepatomegaly associated with adjuvant-induced acute arthritis. Male Lewis rats were used in the study. The study design was described in detail by Bendele et al. (1999) Toxicologic Pathology 27(1):134-142 and by Bendele (2001) J. Musculoskel. Neuron. Interact. 1(4):377-385.\nMale Lewis rats (7 per group for gallium maltolate, 4 per group for normal controls and dexamethasone-treated controls) were injected with 100 μL of Freund's complete adjuvant/lipoidal amine (FCA/LA) subcutaneously at the base of the tail on study day 0 under anesthesia. There is a rapid onset (7 d) of arthritic symptoms in this model, including ankle inflammation, liver and spleen hypertrophy, bone resorption, and mild cartilage destruction.\n(§1) Prophylactic treatment was initiated seven days prior to adjuvant injection by dosing with control vehicle or gallium maltolate (100 or 300 mg/kg gallium maltolate, containing 16 or 47 mg/kg gallium, respectively, in suspension with 1% carboxymethyl cellulose) seven days prior to adjuvant injection. Dosing was by daily oral gavage until termination. The dexamethasone-treated control animals were injected with a daily oral dose of dexamethasone (0.1 mg/kg). Body weights were measured regularly during the course of the study to track the effect of the drugs on the weight loss induced by the developing adjuvant disease, and dose volumes were adjusted accordingly. Prior to the onset of swelling, but after the establishment of systemic disease (about 7 days after adjuvant injection), caliper measurements were made of ankle joints. Ankles were measured every day until 14 days post-adjuvant injection when the rats were anesthetized and sacrificed. Serum was harvested one hour after final dosing for gallium quantitation. Hind paws, liver, and spleen were weighed, fixed, and processed for histopathologic evaluation. Adjuvant arthritic ankles were given scores of 0-5 (0=normal; 5=severe) for inflammation and bone resorption. Splenic changes of inflammation, increased extramedullary hematopoiesis, and lymphoid atrophy were scored 0-5 using criteria similar to those used for scoring of inflammation. The primary endpoint was hepatomegaly, as determined by liver weight and histopathology."}, "[2]": {"tested_on": "human patient exposed to a liver-damaging agent", "test": "Human patient pretreated before exposure to a liver-damaging agent, serum liver enzymes monitored", "assay_type": "in vivo", "settings": "oral tablet or capsule to at least 10 ng/mL serum gallium before exposure; monitored every 12 hours", "procedure": "A human patient, prior to exposure to a liver-damaging agent, is treated with gallium in the form of gallium maltolate combined with the appropriate standard excipients and/or fillers, in tablet or capsule form. Sufficient gallium maltolate is administered to obtain at least 10 ng/mL gallium in the patient's serum. The amount of gallium maltolate plus excipients necessary to reach this level is dependent on the formulation used and the size of the patient. The patient continues to take the oral medication in an amount to build the level of serum gallium and to maintain the level of at least 10 ng/mL serum.\nAfter a period of up to 72 hours, or when the gallium serum concentration reaches the desired level, the patient is exposed to the liver-damaging agent.\nThe serum levels of liver enzymes are monitored at the start of the gallium treatment and every 12 hours thereafter. In particular, levels of […] and SGOT are measured. […] Gallium maltolate administration is discontinued after risk of liver damage is terminated."}, "[3]": {"tested_on": "Con A-treated mice (acute liver injury)", "test": "Concanavalin A-induced acute immune-mediated hepatitis", "assay_type": "in vivo, Balb/c male mice", "settings": "150 mg/kg oral gavage for 4 days prior to Con A", "procedure": "Concanavalin A (Con A) is a powerful mitogen for and activator of T lymphocytes and its intravenous administration to mice initiates an acute immune-mediated hepatitis. The effect of preemptive gallium maltolate administration on the development of acute liver injury was assessed in vivo.\nLiver injury was induced by injecting 6-8 week old Balb/c male mice (weight 25 g) with Con A, 25 mg/kg in 250 μl of phosphate-buffered saline via the tail vein. The test animals were divided into three groups of 2-8 mice each: • (a) Con A treatment • (b) Vehicle (1% carboxymethyl cellulose solution in water) per oral gavage for 4 days prior to Con A treatment • (c) 150 mg/kg gallium maltolate per oral gavage for 4 days prior to Con A treatment\nFor determination of serum alanine aminotransferase (ALT) levels, blood was drawn from different groups of mice 16 hours after administering Con A and measured by a commercially available enzyme assay. […] (FIG. 4). Histological assessment of centrilobular necrosis of the liver was rated for severity on a scale of 0 to 3."}, "[4]": {"test": "Serum gallium quantitation in the adjuvant arthritis study", "assay_type": "in vivo, Male Lewis rats", "settings": "daily oral 100 or 300 mg/kg, serum harvested one hour after final dosing", "procedure": "as §1, with “Adjuvant arthritic ankles were given scores of 0-5 (0=normal; 5=severe) for inflammation and bone resorption.” left out"}, "[5]": {"settings": "oral 100 and 300 mg/kg/day, adjuvant arthritic rats"}}, "note": "Entries after “also recorded” stand apart in the source; their conditions may differ.", "data": [{"smiles": "Cc1occc(=O)c1[O-].Cc1occc(=O)c1[O-].Cc1occc(=O)c1[O-].[Ga+3]", "note": "[gallium maltolate]", "values": [{"measurement": "lobular pattern of liver, histology (FIG. 3A)", "setting": "[1]; 300 mg/kg/day oral for 21 days, 100x magnification", "value": "No accentuation of the lobular pattern"}, {"measurement": "signs of toxicity", "setting": "[1]; daily oral dosing for 14 days, 100 or 300 mg/kg, Lewis rats", "value": "no signs of toxicity"}, {"measurement": "liver pathology, histopathological examination of the livers", "setting": "[1]; gallium treated versus untreated adjuvant arthritic rats", "value": "inhibited the development of liver pathology"}, {"measurement": "liver hypertrophy (adjuvant-induced hepatomegaly)", "setting": "[1]; [5]", "value": "marked reduction; also recorded: Significant dose-dependent protection"}, {"measurement": "spleen hypertrophy", "setting": "[1]; [5]", "value": "marked reduction"}, {"measurement": "serum levels of liver enzymes (SDOT and SGOT)", "setting": "[2]", "value": "do not rise to any significant extent"}, {"measurement": "serum alanine aminotransferase (ALT) levels", "setting": "[3]; blood 16 hours after Con A, versus the other two test groups", "value": "greatly reduced"}, {"measurement": "centrilobular necrosis of the liver, histological assessment", "setting": "[3]; severity scale 0 to 3", "value": "No necrosis"}, {"measurement": "serum gallium levels attained", "setting": "[4]", "value": "dose-dependent"}]}]}
